According to article PMC12892976, “Alkylation-based optimization of antifungal FPPS inhibitors yields a potent, broad-spectrum lipophilic zoledronate derivative” (mBio, 2025):
Like-named read-outs stand apart in the source and are kept apart here.

Experiments:
Aspergillus flavus [1] = test: checkerboard drug interaction (FICI, MICc);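 note: simplified diagonal checkerboard screen pairing azole antifungals with FPPS inhibitors, FICI calculated under the Loewe additivity model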; format: cell-based; set-up: INH MICc (KET:INH) / INH MICc (FLC:INH): unit not given beside the values; details: A. flavus
Candida albicans [2] = test: checkerboard drug interaction (FICI, MICc);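 for all read-outs here: antifungal plus FPPS inhibitor combinations on Candida albicans tested by a simplified diagonal checkerboard screen, with FICI calculated under the Loewe additivity model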; format: cell-based; details: C. albicans; for INH FD (MIC-MICc fold decrease): fold decrease of inhibitor MIC
Procedure: (§1) Drug interactions between antifungals and FPPS inhibitors were investigated using a simplified checkerboard diagonal screening method ([45]). […] FICIs were determined according to the Loewe additivity model ([17]).

Trichophyton rubrum [3] = test: MIC/MFC broth microdilution (CLSI); details: Trichophyton rubrum
Procedure: (§2) Antifungal susceptibility was determined by broth microdilution according to the CLSI guidelines described in M27-Ed4 ([16]). […] MFC was determined by back-plating drug-treated cultures from MIC broths onto SDA plates. The MFC was defined as the lowest concentration from which no colonies could be cultured.

Candida glabrata [4] = test: checkerboard drug interaction (FICI, MICc);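 for all read-outs here: simplified diagonal checkerboard screen pairing antifungals with FPPS inhibitors, FICI calculated under the Loewe additivity model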; format: cell-based; details: C. glabrata; for INH FD (MIC-MICc fold decrease): fold decrease of inhibitor MIC
Procedure: as §1

Aspergillus fumigatus [5] = test: MIC/MFC broth microdilution (CLSI); details: ATCC204305
Procedure: as §2

Cryptococcus neoformans [6] = test: MIC/MFC broth microdilution (CLSI); details: Cryptococcus neoformans;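 note: susceptibility testing followed the CLSI M27-Ed4 broth microdilution document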
Procedure: as §2

HEK-293T cells = test: MTT reduction cytotoxicity assay; format: cell-based; details: Homo sapiens, HEK-293T, 72 h, HEK-293T, MTT, 72 h; read-out: HEK IC50
Trichophyton rubrum [7] = test: checkerboard drug interaction (FICI, MICc);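 note: simplified diagonal checkerboard screen pairing azole antifungals with FPPS inhibitors, FICI calculated under the Loewe additivity model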; format: cell-based; details: T. rubrum
Procedure: as §1

eight fungal species [8] = test: checkerboard interaction with azoles, summary across the eight species; format: cell-based; details: geometric mean MIC in combination with azoles
Description: Synergy between lipophilic FPPS inhibitors and azole antifungals was investigated by determining the fractional inhibitory concentration index (FICI) (Fig. 2; Table S1 Fig. S1) ([17]). […]. Derivatives PLA9 and 11, and PDA9, 11, and 12 antagonized azoles in C. albicans, C. neoformans, and C. deuterogattii, yet were largely synergistic in C. glabrata and S. cerevisiae. […].

eight fungal species [9] = test: MIC/MFC summary across the eight fungal species of Table 1; format: cell-based
Procedure: The antifungal activity of these compounds was evaluated according to CLSI guidelines ([16]).

[10] = tested on: Cryptococcus deuterogattii; test: MIC/MFC broth microdilution (CLSI); details: Cryptococcus deuterogattii;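 note: broth microdilution per CLSI M27-Ed4. MFC is the lowest concentration yielding no colonies when MIC broths are subcultured onto SDA plates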
Procedure: as §2

Aspergillus flavus [11] = test: MIC/MFC broth microdilution (CLSI); details: ATCC204304
Procedure: as §2

Saccharomyces cerevisiae [12] = test: MIC/MFC broth microdilution (CLSI); format: cell-based; details: Saccharomyces cerevisiae S288c
Procedure: as §2

Candida glabrata [13] = test: MIC/MFC broth microdilution (CLSI); details: Nakaseomyces glabratus, CBS138;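 note: broth microdilution following CLSI M27-Ed4, MFC taken as the lowest drug level yielding no growth once MIC wells were subcultured on SDA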
Procedure: as §2

Candida albicans [14] = test: MIC/MFC broth microdilution (CLSI); format: cell-based; details: Candida albicans SC5314
Procedure: as §2

Cryptococcus neoformans [15] = test: checkerboard drug interaction (FICI, MICc);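 for all read-outs here: antifungal plus FPPS inhibitor pairs tested against Cryptococcus neoformans by simplified diagonal checkerboard screening, FICI computed under the Loewe additivity model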; format: cell-based; details: C. neoformans; for INH FD (MIC-MICc fold decrease): fold decrease of inhibitor MIC
Procedure: as §1

[16] = tested on: Cryptococcus deuterogattii; test: checkerboard drug interaction (FICI, MICc);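 for all read-outs here: simplified diagonal checkerboard screen pairing antifungal drugs with FPPS inhibitors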; format: cell-based; details: C. deuterogattii; for INH FD (MIC-MICc fold decrease): fold decrease of inhibitor MIC
Procedure: as §1

Aspergillus fumigatus [17] = test: checkerboard drug interaction (FICI, MICc); format: cell-based;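 note: simplified diagonal checkerboard screen pairing antifungals with FPPS inhibitors against Aspergillus fumigatus, with FICI calculated under the Loewe additivity model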
Procedure: as §1

Saccharomyces cerevisiae [18] = test: checkerboard drug interaction (FICI, MICc); format: cell-based; set-up: INH MICc / INH MICc (ITR:INH) / INH MICc (KET:INH) / INH MICc (FLC:INH): unit not given beside the values;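 note: simplified diagonal checkerboard screen pairing antifungals with FPPS inhibitors, FICI calculated under the Loewe additivity model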
[19] = Fractional Inhibitory Concentration Index, fluconazole + inhibitor
[20] = Fractional Inhibitory Concentration Index, itraconazole + inhibitor
[21] = Fractional Inhibitory Concentration Index, ketoconazole + inhibitor
[22] = MIC of the inhibitor in combination with fluconazole
[23] = MIC of the inhibitor in combination with itraconazole
[24] = MIC of the inhibitor in combination with ketoconazole
[25] = MIC-MICc fold decrease of fluconazole, negative = increase
[26] = MIC-MICc fold decrease of itraconazole, negative = increase
[27] = MIC-MICc fold decrease of ketoconazole, negative = increase
[28] = MIC-MICc fold decrease of the inhibitor, with fluconazole
[29] = MIC-MICc fold decrease of the inhibitor, with itraconazole
[30] = MIC-MICc fold decrease of the inhibitor, with ketoconazole
[31] = FLC:INH combination, MIC of the inhibitor in combination with FLC
[32] = FLC:INH combination, fold decrease of FLC MIC
[33] = ITR:INH combination, MIC of the inhibitor in combination with ITR
[34] = ITR:INH combination, fold decrease of ITR MIC
[35] = KET:INH combination, MIC of the inhibitor in combination with KET
[36] = KET:INH combination, fold decrease of KET MIC

SMILES: CCCCCCCCCN1CCC[C@H]1C(=O)N[C@H](CC(=O)O)C(=O)O [PDA9]
- FICI (FLC:INH) (Aspergillus flavus [1]; [19]): 1
- FICI (ITR:INH) (Aspergillus flavus [1]; [20]): 1.02
- FICI (KET:INH) (Aspergillus flavus [1]; [21]): 1
- INH MICc (FLC:INH) (Aspergillus flavus [1]; [22]): 128
- INH MICc (ITR:INH) (Aspergillus flavus [1]; [23]): 4
- INH MICc (KET:INH) (Aspergillus flavus [1]; [24]): 128
- FLC FD (FLC:INH) (Aspergillus flavus [1]; [25]): 2
- ITR FD (ITR:INH) (Aspergillus flavus [1]; [26]): 1
- KET FD (KET:INH) (Aspergillus flavus [1]; [27]): 2
- INH FD (FLC:INH) (Aspergillus flavus [1]; [28]): 2
- INH FD (ITR:INH) (Aspergillus flavus [1]; [29]): 64
- INH FD (KET:INH) (Aspergillus flavus [1]; [30]): 2
- FICI (Candida albicans [2]; FLC:INH combination): ≥4
- INH MICc (Candida albicans [2]; [31]): 64
- FLC FD (MIC-MICc fold decrease) (Candida albicans [2]; [32]): < -4
- INH FD (MIC-MICc fold decrease) (Candida albicans [2]; FLC:INH combination): 4
- FICI (Candida albicans [2]; ITR:INH combination): ≥4
- INH MICc (Candida albicans [2]; [33]): 64
- ITR FD (MIC-MICc fold decrease) (Candida albicans [2]; [34]): < -4
- INH FD (MIC-MICc fold decrease) (Candida albicans [2]; ITR:INH combination): 4
- FICI (Candida albicans [2]; KET:INH combination): ≥4
- INH MICc (Candida albicans [2]; [35]): 64
- KET FD (MIC-MICc fold decrease) (Candida albicans [2]; [36]): < -4
- INH FD (MIC-MICc fold decrease) (Candida albicans [2]; KET:INH combination): 4
- MFC (Trichophyton rubrum [3]): > 128 µg/mL
- MIC (Trichophyton rubrum [3]): > 128 µg/mL
- FICI (Candida glabrata [4]; FLC:INH combination): 0.31
- INH MICc (Candida glabrata [4]; [31]): 4
- FLC FD (MIC-MICc fold decrease) (Candida glabrata [4]; [32]): 4
- INH FD (MIC-MICc fold decrease) (Candida glabrata [4]; FLC:INH combination): 64
- FICI (Candida glabrata [4]; ITR:INH combination): 0.28
- INH MICc (Candida glabrata [4]; [33]): 2
- ITR FD (MIC-MICc fold decrease) (Candida glabrata [4]; [34]): 4
- INH FD (MIC-MICc fold decrease) (Candida glabrata [4]; ITR:INH combination): 128
- FICI (Candida glabrata [4]; KET:INH combination): 0.28
- INH MICc (Candida glabrata [4]; [35]): 2
- KET FD (MIC-MICc fold decrease) (Candida glabrata [4]; [36]): 4
- INH FD (MIC-MICc fold decrease) (Candida glabrata [4]; KET:INH combination): 128
- MFC (Aspergillus fumigatus [5]): > 128 µg/mL
- MIC (Aspergillus fumigatus [5]): > 128 µg/mL
- MFC (Cryptococcus neoformans [6]): > 128 µg/mL
- MIC (Cryptococcus neoformans [6]): > 128 µg/mL
- IC50 (HEK-293T cells): > 256 µg/mL
- FICI (FLC:INH) (Trichophyton rubrum [7]; [19]): 3
- FICI (ITR:INH) (Trichophyton rubrum [7]; [20]): 2
- FICI (KET:INH) (Trichophyton rubrum [7]; [21]): 0.75
- INH MICc (FLC:INH) (Trichophyton rubrum [7]; [22]): 256
- INH MICc (ITR:INH) (Trichophyton rubrum [7]; [23]): 256
- INH MICc (KET:INH) (Trichophyton rubrum [7]; [24]): 64
- FLC FD (FLC:INH) (Trichophyton rubrum [7]; [25]): -2
- ITR FD (ITR:INH) (Trichophyton rubrum [7]; [26]): 1
- KET FD (KET:INH) (Trichophyton rubrum [7]; [27]): 2
- INH FD (FLC:INH) (Trichophyton rubrum [7]; [28]): 1
- INH FD (ITR:INH) (Trichophyton rubrum [7]; [29]): 1
- INH FD (KET:INH) (Trichophyton rubrum [7]; [30]): 4
- GM fungal MICc (eight fungal species [8]): 52.3
- MFC (eight fungal species [9]; across eight species, read-out: Geometric mean MFC): > 128 µg/mL
- MIC (eight fungal species [9]; geometric mean across eight species, read-out: GM fungal MIC): > 128 µg/mL
- MIC (eight fungal species [9]; read-out: Geometric mean MIC): > 128 µg/mL
- MFC [10]: > 128 µg/mL
- MIC [10]: > 128 µg/mL
- MFC (Aspergillus flavus [11]): > 128 µg/mL
- MIC (Aspergillus flavus [11]): > 128 µg/mL
- MFC (Saccharomyces cerevisiae [12]): > 128 µg/mL
- MIC (Saccharomyces cerevisiae [12]): > 128 µg/mL
- MFC (Candida glabrata [13]): > 128 µg/mL
- MIC (Candida glabrata [13]): > 128 µg/mL
- MFC (Candida albicans [14]): > 128 µg/mL
- MIC (Candida albicans [14]): > 128 µg/mL
- FICI (Cryptococcus neoformans [15]; FLC:INH combination): ≥4
- INH MICc (Cryptococcus neoformans [15]; [31]): 256
- FLC FD (MIC-MICc fold decrease) (Cryptococcus neoformans [15]; [32]): < -4
- INH FD (MIC-MICc fold decrease) (Cryptococcus neoformans [15]; FLC:INH combination): 1
- FICI (Cryptococcus neoformans [15]; ITR:INH combination): ≥4
- INH MICc (Cryptococcus neoformans [15]; [33]): 128
- ITR FD (MIC-MICc fold decrease) (Cryptococcus neoformans [15]; [34]): -4
- INH FD (MIC-MICc fold decrease) (Cryptococcus neoformans [15]; ITR:INH combination): 2
- FICI (Cryptococcus neoformans [15]; KET:INH combination): ≥4
- INH MICc (Cryptococcus neoformans [15]; [35]): 128
- KET FD (MIC-MICc fold decrease) (Cryptococcus neoformans [15]; [36]): -4
- INH FD (MIC-MICc fold decrease) (Cryptococcus neoformans [15]; KET:INH combination): 2
- FICI ([16]; FLC:INH combination): ≥4
- INH MICc [16, 31]: 256
- FLC FD (MIC-MICc fold decrease) [16, 32]: -4
- INH FD (MIC-MICc fold decrease) ([16]; FLC:INH combination): 1
- FICI ([16]; ITR:INH combination): ≥4
- INH MICc [16, 33]: 256
- ITR FD (MIC-MICc fold decrease) [16, 34]: < -4
- INH FD (MIC-MICc fold decrease) ([16]; ITR:INH combination): 1
- FICI ([16]; KET:INH combination): 2
- INH MICc [16, 35]: 256
- KET FD (MIC-MICc fold decrease) [16, 36]: 1
- INH FD (MIC-MICc fold decrease) ([16]; KET:INH combination): 1
- FICI (FLC:INH) (Aspergillus fumigatus [17]; [19]): 2
- FICI (ITR:INH) (Aspergillus fumigatus [17]; [20]): 0.25
- FICI (KET:INH) (Aspergillus fumigatus [17]; [21]): 1.5
- INH MICc (FLC:INH) (Aspergillus fumigatus [17]; [22]): 256
- INH MICc (ITR:INH) (Aspergillus fumigatus [17]; [23]): 1
- INH MICc (KET:INH) (Aspergillus fumigatus [17]; [24]): 128
- FLC FD (FLC:INH) (Aspergillus fumigatus [17]; [25]): 1
- ITR FD (ITR:INH) (Aspergillus fumigatus [17]; [26]): 4
- KET FD (KET:INH) (Aspergillus fumigatus [17]; [27]): 1
- INH FD (FLC:INH) (Aspergillus fumigatus [17]; [28]): 1
- INH FD (ITR:INH) (Aspergillus fumigatus [17]; [29]): 256
- INH FD (KET:INH) (Aspergillus fumigatus [17]; [30]): 2
- FICI (FLC:INH) (Saccharomyces cerevisiae [18]; [19]): 0.75
- FICI (ITR:INH) (Saccharomyces cerevisiae [18]; [20]): 2.06
- FICI (KET:INH) (Saccharomyces cerevisiae [18]; [21]): 0.5
- INH MICc (FLC:INH) (Saccharomyces cerevisiae [18]; [22]): 64
- INH MICc (ITR:INH) (Saccharomyces cerevisiae [18]; [23]): 16
- INH MICc (KET:INH) (Saccharomyces cerevisiae [18]; [24]): 64
- FLC FD (FLC:INH) (Saccharomyces cerevisiae [18]; [25]): 2
- ITR FD (ITR:INH) (Saccharomyces cerevisiae [18]; [26]): -2
- KET FD (KET:INH) (Saccharomyces cerevisiae [18]; [27]): 4
- INH FD (FLC:INH) (Saccharomyces cerevisiae [18]; [28]): 4
- INH FD (ITR:INH) (Saccharomyces cerevisiae [18]; [29]): 16
- INH FD (KET:INH) (Saccharomyces cerevisiae [18]; [30]): 4
